Reference: patent publication US4298690A, “Antibiotics XK-62-3 and XK-62-4 and process for production thereof” (Kyowa Hakko Kogyo Co., Ltd., priority 1977, dated 1981)
Converted amounts (≈) assume the structure as drawn. Structures can show the parent of a compound that is named as a salt.

Legend:
[1] = system: Staphylococcus aureus ATCC 6538P; assay: MIC by agar dilution method at pH 8.0, Staphylococcus aureus ATCC 6538P; type: cell-based; settings: ATCC6538P, read-out: Minimum Inhibitory Concentration
Source text: (§1) Table 4 illustrates the antibacterial spectra of XK-62-3 and XK-62-4 against various microorganisms.
(§2) (Minimum Inhibitory Concentration, γ/ml
(§3) measured by agar dilution method at pH 8.0)

[2] = system: Pseudomonas aeruginosa KY 8511; assay: MIC by agar dilution method at pH 8.0, Pseudomonas aeruginosa KY 8511; type: cell-based; settings: KY8511, Pseudomonas aeruginosa KY 8511, resistant to gentamicin, AAC(3)-I, read-out: Minimum Inhibitory Concentration
Source text: as §1, §2, §3

[3] = system: Bacillus subtilis No. 10707; assay: MIC by agar dilution method at pH 8.0, Bacillus subtilis No. 10707; type: cell-based; settings: read-out: Minimum Inhibitory Concentration
Source text: as §1, §2, §3

Escherichia coli KY 8310 = assay: MIC by agar dilution method at pH 8.0, Escherichia coli KY 8310; type: cell-based; settings: KY8310, read-out: Minimum Inhibitory Concentration
Source text: as §1, §2, §3

Providenicia sp. KY 8464 = assay: MIC by agar dilution method at pH 8.0, Providenicia sp. KY 8464; type: cell-based; settings: read-out: Minimum Inhibitory Concentration
Source text: as §1, §2, §3

[4] = system: Salmonella typhosa ATCC 9992; assay: MIC by agar dilution method at pH 8.0, Salmonella typhosa ATCC 9992; type: cell-based; settings: Salmonella enterica, pH 8, read-out: Minimum Inhibitory Concentration
Source text: as §1, §2, §3

[5] = system: Proteus vulgaris ATCC 6897; assay: MIC by agar dilution method at pH 8.0, Proteus vulgaris ATCC 6897; type: cell-based; settings: ATCC6897, read-out: Minimum Inhibitory Concentration
Source text: as §1, §2, §3

[6] = system: Serratia marcescens KY 4248; assay: MIC by agar dilution method at pH 8.0, Serratia marcescens KY 4248; type: cell-based; settings: KY4248, read-out: Minimum Inhibitory Concentration
Source text: as §1, §2, §3

[7] = system: Pseudomonas aeruginosa BMH No. 1; assay: MIC by agar dilution method at pH 8.0, Pseudomonas aeruginosa BMH No. 1; type: cell-based; settings: BMHNO.1, read-out: Minimum Inhibitory Concentration
Source text: as §1, §2, §3

[8] = system: Gram-positive and Gram-negative bacteria; assay: Antibacterial activity against a broad range of bacteria (in words); type: cell-based
Source text: as §1, §2, §3

[9] = system: resistant strains of Escherichia coli and Pseudomonas aeruginosa (3-N-acetylation, 2"-adenylation); assay: Antibacterial activity against resistant strains with 3-N-acetylation, 2"-adenylation (in words); type: cell-based; settings: E. coli and P. aeruginosa resistant by 3-N-acetylation, etc.
Source text: as §1, §2, §3

Escherichia coli KY 8327 = assay: MIC by agar dilution method at pH 8.0, Escherichia coli KY 8327; type: cell-based; settings: KY8327, pH 8, read-out: Minimum Inhibitory Concentration
Source text: as §1, §2, §3

[10] = Solubility of the free base; type: physicochemical; settings: for solubility in organic solvents: chloroform, benzene, ethyl acetate, butyl acetate, ether, butanol, petroleum ether, n-hexane
[11] = system: Shigella sonnei ATCC 9290; assay: MIC by agar dilution method at pH 8.0, Shigella sonnei ATCC 9290; type: cell-based; settings: ATCC9290, read-out: Minimum Inhibitory Concentration
Source text: as §1, §2, §3

[12] = system: Klebsiella pneumoniae KY 4261; assay: MIC by agar dilution method at pH 8.0, Klebsiella pneumoniae KY 4261; type: cell-based; settings: KY4261, read-out: Minimum Inhibitory Concentration
Source text: as §1, §2, §3

[13] = system: Klebsiella pneumoniae ATCC 10031; assay: MIC by agar dilution method at pH 8.0, Klebsiella pneumoniae ATCC 10031; type: cell-based; settings: ATCC10031, read-out: Minimum Inhibitory Concentration
Source text: as §1, §2, §3

Escherichia coli ATCC 26 = assay: MIC by agar dilution method at pH 8.0, Escherichia coli ATCC 26; type: cell-based; settings: ATCC26, read-out: Minimum Inhibitory Concentration
Source text: as §1, §2, §3

[14] = system: Pseudomonas aeruginosa KY 8563; assay: MIC by agar dilution method at pH 8.0, Pseudomonas aeruginosa KY 8563; type: cell-based; settings: KY8563, Pseudomonas aeruginosa KY 8563, resistant to gentamicin, AAC(3)-II, read-out: Minimum Inhibitory Concentration
Source text: as §1, §2, §3

[15] = system: Bacillus subtilis No. 10707; assay: Activity (units) of purified preparate; type: cell-based; settings: for activity: per mg not given, Examples 2D, 3, 4
Method: The activity of the eluate is determined against Bacillus subtilis No. 10707 by a paper disk method using an agar plate. Active fractions are combined and concentrated in vacuo to about 3 L. The concentrate is adjusted to pH 8.0 with 6 N sulfuric acid and passed through a column packed with 3 L of an anion exchange resin, Dowex 1×2 (OH^- form). The column is washed with about 20 L of water and active principles are eluted with 1 N aqueous ammonia. The active fractions are combined and concentrated to 1/10 by volume. The pH of the concentrate is adjusted to 10.5 with 6 N sodium hydroxide and 4 volumes of acetone is added thereto. The resulting precipitate is removed by filtration and the acetone layer is concentrated to 2 L. The concentrate is adjusted to pH 4.5 with 6 N sulfuric acid and then 10 L of methanol is added thereto. After cooling, a white precipitate is obtained. The precipitate is separated by filtration and washed with methanol. After drying in vacuo, about 250 g of white powder (sulfate form) is obtained.
The residue is dissolved in a small amount of water and the solution is freeze-dried to obtain about 1.5 g of purified preparate of the free base of XK-62-3.
The residue is dissolved in a small amount of water and the solution is freeze-dried to obtain about 2.2 g of purified preparate of the free base of XK-62-4.
After the completion of fermentation, the culture liquor is adjusted to pH 2.0 with 12 N sulfuric acid and stirred for 30 minutes. Then, about 20 kg of Radiolite No. 600 (filter aid) is added thereto and the microbial cells are removed by filtration. The filtrate is adjusted to pH 8.0 with 6 N sodium hydroxide and passed through a column packed with 100 L of a cation exchange resin, Amberlite IRC-50 (NH4^+ form). After washing the resin with water, the active substances are eluted out with 1 N aqueous ammonia. The eluate is obtained in fractions and the activity of each of the fractions is determined against Bacillus subtilis No. 10707 by a paper disc method using an agar plate. The eluate is concentrated to 2 L under reduced pressure. The concentrate is adjusted to pH 4.5 with 6 N sulfuric acid and the resulting insoluble substance is removed by filtration. To the filtrate 20 L of methanol is added to form a white precipitate. The precipitate is separated by filtration and washed with methanol. After drying in vacuo, 500 g of white powder, of a crude XK-62 series (sulfate form) is obtained.

[16] = Acute toxicity in dd-mice; settings: mouse, in vivo
Escherichia coli KY 8356 = assay: MIC by agar dilution method at pH 8.0, Escherichia coli KY 8356; type: cell-based; settings: KY8356, read-out: Minimum Inhibitory Concentration
Source text: as §1, §2, §3

Escherichia coli KY 8348 = assay: MIC by agar dilution method at pH 8.0, Escherichia coli KY 8348; type: cell-based; settings: KY8348, Escherichia coli KY 8348, resistant to gentamicin, AAC(3)-I, read-out: Minimum Inhibitory Concentration
Source text: as §1, §2, §3

[17] = system: Pseudomonas aeruginosa Z 444; assay: MIC by agar dilution method at pH 8.0, Pseudomonas aeruginosa Z 444; type: cell-based; settings: Z444, Pseudomonas aeruginosa Z 444, resistant to gentamicin, AAC(6')-III, read-out: Minimum Inhibitory Concentration
Source text: as §1, §2, §3

[18] = system: resistant strains of Escherichia coli and Pseudomonas aeruginosa (6'-N-acetylation); assay: Antibacterial activity against resistant strains with 6'-N-acetylation (in words); type: cell-based; settings: E. coli and P. aeruginosa resistant by 6'-N-acetylation, etc.
Source text: as §1, §2, §3

Escherichia coli KY 8332 = assay: MIC by agar dilution method at pH 8.0, Escherichia coli KY 8332; type: cell-based; settings: KY8332, Escherichia coli KY 8332, resistant to kanamycin, AAC(6')-I, read-out: Minimum Inhibitory Concentration
Source text: as §1, §2, §3

[19] = system: Pseudomonas aeruginosa Z 445; assay: MIC by agar dilution method at pH 8.0, Pseudomonas aeruginosa Z 445; type: cell-based; settings: Z445, Pseudomonas aeruginosa Z 445, resistant to gentamicin, AAC(6')-III, read-out: Minimum Inhibitory Concentration
Source text: as §1, §2, §3

[20] = system: resistant strains of Escherichia coli and Pseudomonas aeruginosa (6'-N-acetylation); settings: strains with 6'-N-acetylation, etc.; known antibiotics; cited from earlier work
[21] = system: resistant strains of Escherichia coli and Pseudomonas aeruginosa (3-N-acetylation, 2"-adenylation); settings: strains with 3-N-acetylation, etc., known antibiotics; cited from earlier work
[22] = free base, Example 1, 1 mg of pure preparate corresponds to 1000 units

## CNC1CC(N)C(OC2OCC(C)(O)C(NC)C2O)C(O)C1OC1OC(CN)CCC1N (stereo not shown) [XK-62-3]
[1]
  MIC: 0.0021 µg/mL (≈ 0.00453 µM)
[2]
  MIC: 0.26 µg/mL (≈ 0.561 µM)
[3]
  MIC: < 0.0011 µg/mL
Escherichia coli KY 8310
  MIC: 0.066 µg/mL (≈ 0.142 µM)
Providenicia sp. KY 8464
  MIC: 1.04 µg/mL (≈ 2.24 µM)
[4]
  MIC: 0.033 µg/mL (≈ 0.0712 µM)
[5]
  MIC: 0.26 µg/mL (≈ 0.561 µM)
[6]
  MIC: 1.52 µg/mL (≈ 3.28 µM)
[7]
  MIC: 0.26 µg/mL (≈ 0.561 µM)
[8]
  antibacterial activity: very strong antibacterial activity
[9]
  antibacterial activity against certain resistant strains: strong antibacterial activity
Escherichia coli KY 8327
  MIC: 0.066 µg/mL (≈ 0.142 µM)
[10]
  solubility in organic solvents: insoluble
  solubility in ethanol and acetone: slightly soluble
  solubility in methanol: soluble
  solubility in water: very soluble
[11]
  MIC: 0.13 µg/mL (≈ 0.28 µM)
[12]
  MIC: 0.066 µg/mL (≈ 0.142 µM)
[13]
  MIC: 0.0082 µg/mL (≈ 0.0177 µM)
Escherichia coli ATCC 26
  MIC: 0.066 µg/mL (≈ 0.142 µM)
[14]
  MIC: 0.25 µg/mL (≈ 0.539 µM)
[15]; Example 2
  activity of purified preparate: 970 units/mg
[15]; [22]
  activity of purified preparate: about 985 unit/mg
[16]
  LD50: 106 mg/kg
Escherichia coli KY 8356
  MIC: 0.26 µg/mL (≈ 0.561 µM)
Escherichia coli KY 8348
  MIC: 0.033 µg/mL (≈ 0.0712 µM)
[17]
  MIC: > 10 µg/mL

## CNC1C(O)C(OC2C(N)CC(N)C(OC3OC(CN(C)C)CCC3N)C2O)OCC1(C)O (stereo not shown) [XK-62-4]
[1]
  MIC: 0.0021 µg/mL (≈ 0.0044 µM)
[3]
  MIC: < 0.0011 µg/mL
Escherichia coli KY 8310
  MIC: 0.066 µg/mL (≈ 0.138 µM)
[4]
  MIC: 0.011 µg/mL (≈ 0.023 µM)
[5]
  MIC: 0.13 µg/mL (≈ 0.272 µM)
[6]
  MIC: 0.26 µg/mL (≈ 0.544 µM)
[7]
  MIC: 0.26 µg/mL (≈ 0.544 µM)
[8]
  antibacterial activity: very strong antibacterial activity
[18]
  antibacterial activity against certain resistant strains: strong antibacterial activity
[10]
  solubility in organic solvents: insoluble
  solubility in ethanol and acetone: slightly soluble
  solubility in methanol: soluble
  solubility in water: very soluble
[11]
  MIC: 0.066 µg/mL (≈ 0.138 µM)
[12]
  MIC: 0.066 µg/mL (≈ 0.138 µM)
Escherichia coli KY 8332
  MIC: 0.033 µg/mL (≈ 0.0691 µM)
[13]
  MIC: 0.0082 µg/mL (≈ 0.0172 µM)
Escherichia coli ATCC 26
  MIC: 0.033 µg/mL (≈ 0.0691 µM)
[14]
  MIC: > 10 µg/mL
[15]; [22]
  activity of purified preparate: about 980 unit/mg
[15]
  activity: 970 units
[19]
  MIC: 0.26 µg/mL (≈ 0.544 µM)
[16]
  LD50: 25.9 mg/kg
[17]
  MIC: 0.26 µg/mL (≈ 0.544 µM)

## NC[C@@H]1CC[C@@H](N)[C@@H](O[C@H]2[C@H](O)[C@@H](O[C@H]3O[C@H](CO)[C@@H](O)[C@H](N)[C@H]3O)[C@H](N)C[C@@H]2N)O1 [dibekacin, 3,4-dideoxy kanamycin B]
[20]
  effect on resistant strains: ineffective

## NCC1OC(OC2C(N)CC(N)C(OC3OC(CO)C(O)C(N)C3O)C2O)C(O)C(O)C1O (stereo not shown) [kanamycin A]
[20]
  effect on resistant strains: ineffective

## NC[C@H]1O[C@H](O[C@H]2[C@H](O)[C@@H](O[C@H]3O[C@H](CO)[C@@H](O)[C@H](N)[C@H]3O)[C@H](N)C[C@@H]2N)[C@H](O)[C@@H](O)[C@@H]1O [kanamycin]
[21]
  effect on resistant strains: ineffective

## CNCC1CCC(N)C(OC2C(N)CC(N)C(OC3OCC(C)(O)C(NC)C3O)C2O)O1 (stereo not shown) [sagamicin (antibiotic XK-62-2)]
[21]
  effect on resistant strains: ineffective

## CN[C@@H]1[C@@H](O)[C@@H](O[C@@H]2[C@@H](O)[C@H](O[C@H]3OC(CN)=CC[C@H]3N)[C@@H](N)C[C@H]2N)OC[C@]1(C)O [sisomicin]
[20]
  effect on resistant strains: ineffective

## CNC1CC(N)C(OC2OCC(C)(O)C(NC)C2O)C(O)C1OC1OC(CN)CCC1N (stereo not shown) [sulfate salt of XK-62-3]
[15]
  activity: about 630 units

## CNC1C(O)C(OC2C(N)CC(N)C(OC3OC(CN(C)C)CCC3N)C2O)OCC1(C)O (stereo not shown) [sulfate salt of XK-62-4]
[15]
  activity: about 625 units
